Data as given in article PMC9703800 (BMC Chemistry, 2022).
“Also recorded” adds a separate entry of the source.

Tests used:
[1] = molecular target: T1, Acetylcholinesterase (AChE) (Electrophorus electricus, UniProt O42275); experiment: biochemical; type: biochemical; details: for inhibition at 40 µg/mL: read-out: AChE inhibition (%); for IC50: isolated compounds, mean ± SD, three experiments, read-out: AChEI (μM), IC50
T1 construct: Type V-S, lyophilized powder, from electric eel; purchased Sigma-Aldrich; host or cells: electric eel (natural source)
T1 sequence (O42275 24-633): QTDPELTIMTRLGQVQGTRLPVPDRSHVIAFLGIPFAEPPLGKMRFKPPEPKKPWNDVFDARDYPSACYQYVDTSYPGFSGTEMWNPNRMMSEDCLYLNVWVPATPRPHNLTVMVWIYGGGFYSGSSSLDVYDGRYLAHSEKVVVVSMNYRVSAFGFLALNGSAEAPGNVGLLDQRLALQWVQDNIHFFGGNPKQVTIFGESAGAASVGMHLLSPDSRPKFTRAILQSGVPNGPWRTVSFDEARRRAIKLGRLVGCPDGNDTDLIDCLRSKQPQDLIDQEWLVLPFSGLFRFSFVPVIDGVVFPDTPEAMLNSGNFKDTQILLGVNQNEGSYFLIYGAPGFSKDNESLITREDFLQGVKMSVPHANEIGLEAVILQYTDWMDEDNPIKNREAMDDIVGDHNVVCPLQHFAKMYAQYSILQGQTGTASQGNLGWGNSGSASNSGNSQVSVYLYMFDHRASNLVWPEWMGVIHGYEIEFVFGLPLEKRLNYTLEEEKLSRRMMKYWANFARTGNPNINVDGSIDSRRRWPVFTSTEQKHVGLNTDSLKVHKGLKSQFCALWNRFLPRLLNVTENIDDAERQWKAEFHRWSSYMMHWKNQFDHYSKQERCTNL

[2] = molecular target: butyrylcholinesterase (BChE) (Equus caballus, UniProt P81908); experiment: biochemical; type: biochemical; details: for inhibition at 40 µg/mL: read-out: BChE inhibition (%); for IC50: isolated compounds, mean ± SD, three experiments, read-out: BChEI (μM), IC50
Sequence of butyrylcholinesterase (BChE) (P81908 whole entry): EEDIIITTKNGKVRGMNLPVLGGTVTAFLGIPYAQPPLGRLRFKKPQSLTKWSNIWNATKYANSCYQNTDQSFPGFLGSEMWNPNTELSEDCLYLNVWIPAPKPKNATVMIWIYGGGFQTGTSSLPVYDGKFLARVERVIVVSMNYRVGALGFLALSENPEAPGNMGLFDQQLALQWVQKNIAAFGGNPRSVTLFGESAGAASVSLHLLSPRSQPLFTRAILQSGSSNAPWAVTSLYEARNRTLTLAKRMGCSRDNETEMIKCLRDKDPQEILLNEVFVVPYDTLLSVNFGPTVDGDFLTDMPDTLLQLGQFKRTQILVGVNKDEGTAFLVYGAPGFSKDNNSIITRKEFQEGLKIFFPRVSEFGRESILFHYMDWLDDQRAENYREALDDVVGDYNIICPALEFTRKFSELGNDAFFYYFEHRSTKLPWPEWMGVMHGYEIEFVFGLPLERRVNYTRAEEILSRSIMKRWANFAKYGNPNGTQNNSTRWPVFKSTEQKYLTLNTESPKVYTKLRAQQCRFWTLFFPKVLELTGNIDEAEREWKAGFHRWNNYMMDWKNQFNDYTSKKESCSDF

[3] = molecular target: BChE (Equus caballus, UniProt P81908); experiment: Kinetic study of BChE inhibition (Lineweaver-Burk); type: biochemical
Sequence of BChE (P81908 whole entry): as above
Method: (§1) Kinetic studies of compound 2 were performed for the inhibition of ChEs based on the Ellman's method, using various concentrations of the inhibitor [14]. […]

[4] = molecular target: T2, AChE (Electrophorus electricus, UniProt O42275); experiment: Kinetic study of AChE inhibition (Lineweaver-Burk); type: biochemical
T2 construct: Type V-S, lyophilized powder, from electric eel; purchased Sigma-Aldrich; host or cells: electric eel (natural source)
T2 sequence (O42275 24-633): as the sequence (O42275 24-633) above
Method: as §1

[5] = tested on: PC12 cells; experiment: Neuroprotectivity against H2O2-induced cell death in PC12 cells (MTT); type: cell-based; details: 50 µM, positive control, H2O2 400 μM

COc1cc(C(OC)C(C)C(C)Cc2ccc3c(c2)OCO3)ccc1O (stereo not drawn) [Compound 6, 4-(4-(Benzo[d][1,3]dioxol-5-yl)-1-methoxy-2,3-dimethylbutyl)-2-methoxyphenol]
inhibition at 40 µg/mL [1]: 0% | inhibition at 40 µg/mL [2]: 44%

COc1cc([C@H]2O[C@@H](c3ccc(O)c(OC)c3)[C@H](C)[C@@H]2C)ccc1O [Compound 4, 4,4'-((2R,3R,4S,5S)-3,4-Dimethyltetrahydrofuran-2,5-diyl)bis(2-methoxyphenol)]
inhibition at 40 µg/mL [1]: 0% | inhibition at 40 µg/mL [2]: 45.8%

O=C(CCCCCCCCc1ccccc1)c1c(O)cccc1O [Compound 1, 1-(2,6-Dihydroxyphenyl)-9-phenylnonan-1-one]
AChE inhibitory activity (in words) [1]: potent inhibitors; also recorded: strong inhibitors | IC50 [1]: 67.4 ± 1.52 µM | BChE inhibitory activity (in words) [2]: potent inhibitors; also recorded: strong inhibitors | IC50 [2]: 27.16 ± 0.06 µM

COc1cc(CC(C)C(C)Cc2ccc3c(c2)OCO3)ccc1O (stereo not drawn) [Compound 5, 4-(4-(Benzo[d][1,3]dioxol-5-yl)-2,3-dimethylbutyl)-2-methoxyphenol]
inhibition at 40 µg/mL [1]: 12.8% | inhibition at 40 µg/mL [2]: 54.4%

O=C(CCCCCCCCc1ccc(O)c(O)c1)c1c(O)cccc1O [Compound 2, 1-(2,6-Dihydroxyphenyl)-9-(3,4-dihydroxyphenyl)nonan-1-one]
AChE inhibitory activity (in words) [1]: potent inhibitors; also recorded: strong inhibitors | IC50 [1]: 25 ± 0.95 µM | BChE inhibitory activity (in words) [2]: potent inhibitors; also recorded: strong inhibitors | IC50 [2]: 22.36 ± 0.03 µM | Mechanism of BChE inhibition ([3]; Lineweaver-Burk plot): non-competitive inhibition; also recorded: non-competitively inhibited | Ki ([3]; Lineweaver-Burk, inhibitor 0, 14, 28, 56 μM): 22.4 µM | Mechanism of AChE inhibition ([4]; Lineweaver-Burk plot): non-competitive inhibition; also recorded: non-competitively inhibited | Ki ([4]; Lineweaver-Burk, inhibitor 0, 28, 56, 112 μM): 25 µM

O=c1c(O)c(-c2ccc(O)c(O)c2)oc2cc(O)cc(O)c12 [quercetin]
Neuroprotection (%) against H2O2-induced cell death [5]: 72.79%

COc1ccc(CC(C)C(C)Cc2ccc(O)c(O)c2)cc1OC (stereo not drawn) [Compound 3, 4-(4-(3,4-Dimethoxyphenyl)-2,3-dimethylbutyl)benzene-1,2-diol]
inhibition at 40 µg/mL [1]: 0% | inhibition at 40 µg/mL [2]: 47.4%
